The values below come from ChEMBL document CHEMBL5346925, “3,4-Dihydrobenzo[e][1,2,3]oxathiazine 2,2-dioxide analogs act as potential AMPA receptor potentiators with antidepressant activity” (Eur J Med Chem, 2023).

The first test concerns the target T1, Glutamate receptor ionotropic, AMPA (Rattus norvegicus) (UniProt P19491+P19492+P19493+P19490). Description: Agonist activity at AMPA receptor in rat Primary neuron cells assessed as potentiation of s-AMPA induced calcium flux at 1 uM incubated for 1 hr by calcium 2+ influx assay relative to s-AMPA coupled TAK-137. The format is cell-based. Particulars: filed as agonist.
Turning to `COc1cccc(-c2ccc(-c3cccc4c3OS(=O)(=O)NC4C)cc2)c1` (centres undefined), the Activity turned out to be 58.5%.

For the molecule `O=S1(=O)NCc2cccc(-c3ccc(F)cc3)c2O1`, the Activity was found to be 48%.

On to `COc1cccc(-c2ccc(-c3cccc4c3OS(=O)(=O)NC4)cc2)c1`, for which the Activity was 56.4%.

Regarding `O=S1(=O)NCc2cccc(-c3ccc(-c4ccc(F)cc4)cc3)c2O1`, the Activity came to 85.3%.

`COc1ccccc1-c1ccc(-c2cccc3c2OS(=O)(=O)NC3C)cc1` (centres undefined): the Activity worked out at 65.5%.

As to `CC(C)Oc1ccc(-c2cccc3c2OS(=O)(=O)NC3)cc1`, the Activity stood at 107%.

Regarding `COc1ccc(-c2ccc(-c3cccc4c3OS(=O)(=O)NC4)cc2F)cc1`, the Activity turned out to be 55.8%.

Consider `O=S1(=O)NCc2cccc(-c3ccc4c(c3)OCCO4)c2O1`, for which the Activity came out at 90.7%.

On to `Cc1ccc(-c2ccc(-c3cccc4c3OS(=O)(=O)NC4)cc2)cc1`, for which the Activity is 66%.

As to `CC(C)(C)c1ccc(-c2cccc3c2OS(=O)(=O)NC3)cc1`, the Activity is 106%.

As for `O=S1(=O)NCc2cccc(-c3ccc(OC(F)(F)F)cc3)c2O1`, the Activity is 72.2%.

With `O=S1(=O)NCc2cccc(-c3ccc(-c4ccccc4)cc3)c2O1`, the Activity worked out at 69.6%.

Turning to `COc1ccc(-c2ccc(-c3cccc4c3OS(=O)(=O)NC4)c(F)c2)cc1`, the Activity was determined as 67.9%.

For the molecule `COc1ccc(-c2cccc3c2OS(=O)(=O)NC3)cc1F`, the Activity worked out at 98.4%.

As for `Cc1ccc(-c2ccc(-c3cccc4c3OS(=O)(=O)NC4)c(F)c2)cc1`, the Activity was 40.7%.

With `Cc1ccc(-c2cccc3c2OS(=O)(=O)NC3)cc1`, the Activity stood at 81.7%.

Take `CC1NS(=O)(=O)Oc2c(-c3ccc(-c4cccc(F)c4)cc3)cccc21` (centres undefined): the Activity was 62.4%.

As for `Cc1ccc(-c2ccc(-c3cccc4c3OS(=O)(=O)NC4C)cc2)cc1` (centres undefined), the Activity worked out at 55.3%.

For the molecule `O=S1(=O)NCc2cccc(-c3ccc4c(c3)OCO4)c2O1`, the Activity turned out to be 92%.

Regarding `CC1NS(=O)(=O)Oc2c(-c3ccc(-c4ccc(F)cc4)cc3)cccc21` (centres undefined), the Activity is 59.6%.

Regarding `O=S1(=O)NCc2cccc(-c3ccc(-c4cccc(F)c4)cc3)c2O1`, the Activity was 72.1%.

As for `CC1NS(=O)(=O)Oc2c(-c3ccc(-c4ccccc4F)cc3)cccc21` (centres undefined), the Activity was 69.2%.

For a further test, the target named is T1, Glutamate receptor ionotropic, AMPA (Rattus norvegicus). Put plainly: Agonist activity at AMPA receptor in rat Primary neuron cells assessed as increase in fluorescence level at 1 uM incubated for 1 hr by calcium 2+ influx assay relative to s-AMPA coupled TAK-137. The test is classed as cell-based.
Conditions: not given
`COc1cccc(-c2ccc(-c3cccc4c3OS(=O)(=O)NC4C)cc2)c1` (centres undefined): the Activity was determined as 4.2%.

`O=S1(=O)NCc2cccc(-c3ccc(F)cc3)c2O1`: the Activity is 36.5%.

For the molecule `COc1cccc(-c2ccc(-c3cccc4c3OS(=O)(=O)NC4)cc2)c1`, the Activity was 2.5%.

Take `O=S1(=O)NCc2cccc(-c3ccc(-c4ccc(F)cc4)cc3)c2O1`: the Activity was determined as 8.1%.

On to `COc1ccccc1-c1ccc(-c2cccc3c2OS(=O)(=O)NC3C)cc1` (centres undefined), for which the Activity came to 8.5%.

For `CC(C)Oc1ccc(-c2cccc3c2OS(=O)(=O)NC3)cc1`, the Activity is 13.2%.

Regarding `COc1ccc(-c2ccc(-c3cccc4c3OS(=O)(=O)NC4)cc2F)cc1`, the Activity was determined as 5.3%.

With `O=S1(=O)NCc2cccc(-c3ccc4c(c3)OCCO4)c2O1`, the Activity came to 19.5%.

For `Cc1ccc(-c2ccc(-c3cccc4c3OS(=O)(=O)NC4)cc2)cc1`, the Activity was 3.5%.

As for `CC(C)(C)c1ccc(-c2cccc3c2OS(=O)(=O)NC3)cc1`, the Activity was determined as 29.4%.

Take `O=S1(=O)NCc2cccc(-c3ccc(OC(F)(F)F)cc3)c2O1`: the Activity was determined as 1.4%.

Regarding `O=S1(=O)NCc2cccc(-c3ccc(-c4ccccc4)cc3)c2O1`, the Activity was 6.2%.

As to `COc1ccc(-c2ccc(-c3cccc4c3OS(=O)(=O)NC4)c(F)c2)cc1`, the Activity is 3.2%.

Turning to `COc1ccc(-c2cccc3c2OS(=O)(=O)NC3)cc1F`, the Activity amounted to 19.2%.

For the molecule `Cc1ccc(-c2ccc(-c3cccc4c3OS(=O)(=O)NC4)c(F)c2)cc1`, the Activity was 1.4%.

For `Cc1ccc(-c2cccc3c2OS(=O)(=O)NC3)cc1`, the Activity worked out at 7.3%.

For `CC1NS(=O)(=O)Oc2c(-c3ccc(-c4cccc(F)c4)cc3)cccc21` (centres undefined), the Activity came to 8.6%.

With `Cc1ccc(-c2ccc(-c3cccc4c3OS(=O)(=O)NC4C)cc2)cc1` (centres undefined), the Activity is 0.1%.

As for `O=S1(=O)NCc2cccc(-c3ccc4c(c3)OCO4)c2O1`, the Activity was determined as 17.1%.

In the case of `CC1NS(=O)(=O)Oc2c(-c3ccc(-c4ccc(F)cc4)cc3)cccc21` (centres undefined), the Activity amounted to 3.7%.

For the molecule `O=S1(=O)NCc2cccc(-c3ccc(-c4cccc(F)c4)cc3)c2O1`, the Activity stood at 3.5%.

Turning to `CC1NS(=O)(=O)Oc2c(-c3ccc(-c4ccccc4F)cc3)cccc21` (centres undefined), the Activity was found to be 10.5%.
